The record followed here is paper PMC5691209, “Specific Targeting of Melanotic Cells with Peptide Ligated Photosensitizers for Photodynamic Therapy” (Scientific Reports, 2017).

The test system of series [1] is B16-F10 melanoma cells. The series is described as follows: Cell proliferation with LED light irradiation (Incucyte confluence). The format is cell-based, mouse. The following applies: 5 µM. As for the experimental part: B16-F10 murine melanoma cells were seeded at a density of 3000–4000 cells per well in 96-well black-view Perkin-Elmer plates using DMEM medium without phenol red. After an overnight incubation at 37 °C, the medium was aspirated from the wells and varying concentrations of synthetic peptide-photosensitizer constructs diluted in DMEM medium were added to the cells. The cells were incubated in dark at 37 °C for 4 h and then washed twice with 1X PBS buffer (200 µL). Fresh medium (300 µL) was added to the wells before placing the plates in the Incucyte ZOOM live cell imaging machine to capture the images after every hour. Percentage of confluence was measured over a time period of 24–72 h. For skin keratinocyte cell line N/TERT-1, the starting confluence was 75–85% of cell density for the initial light experiments. The higher cell density was used to mimic the physiological condition in the body, where keratinocytes are present in much larger numbers (30:1) than melanocytes.
This combinatorial equipment comprises light irradiation system with multiple wavelengths LED (From UVA to near IR) assembled with well-established incucyte that contains incubator and light microscope. […] Incucyte light microscope was used to capture images of the cell growth at every hour or two, from which percentage confluence (i.e. cell densities) were calculated. […]

Series [2] concerns B16-F10 mouse melanoma cells. The series is described as follows: Melanin assay (extra- and intracellular melanin production). The following applies: B16-F10, 72 h at 37 °C, OD at 475 nm, α-MSH 10 nM, NAP, HPPH-NAP, MB, HPPH 1 µM, mean of three independent experiments. The format is cell-based. As for the experimental part: B16-F10 mouse melanoma cells or human mid-pigmented melanoma cells FM55 were seeded in Nunc 6-well tissue culture plates using DMEM medium without phenol red. After overnight incubation of the cells at 37 °C, various photosensitizers (1 µM) or peptide conjugated photosensitizers (1 µM) were added at room temperature and the cells were incubated at 37 °C for 72 h. After three days of incubation, supernatants of cell (200 µL) were pipetted out from Nunc 6-well tissue culture plates as extracellular melanin pigment and three concurrent absorption measurements were taken at 475 nm using a Spectra Max MS microplate/cuvette reader (Fig. 3c,e). Adherent cells in the Nunc 6-well plates were detached with 0.02% EDTA and centrifuged at 2000 rpm for 3 min. […] Three concurrent absorption measurements were taken at 475 nm using a Spectra Max MS microplate/cuvette reader (Fig. 3d,f). […]
B16-F10 and FM55 melanin assays are represented as the average of three independent experiments expressed as Mean ± SEM. Differences between various groups were calculated using one way ANOVA post Bonferroni’s multiple comparison test and results were reported as significant if P-value was below 0.05. Phototoxicity SRB data of B16-F10, MeL, FM55 and N/TERT-1 was analyzed via student t test and significance was reported if P-value was below 0.05.

“2-(1-hexyloxyethyl)-2-devinyl pyropheophorbide [HPPH]”: the “light induced cytotoxicity (cell proliferation)” value in series [1] (B16-F10, 627 nm LED light 0.10 mW/cm^2, 48 h continuously) is on record as “cytotoxicity was observed”; in series [1] (B16-F10, 660 nm LED light 0.10 mW/cm^2, 48 h continuously), “cytotoxicity was observed”. Besides, the “extra- and intracellular melanin production” value in series [2] is recorded as “did not induce any melanin production”.
For the molecule `CN(C)c1ccc2nc3ccc(=[N+](C)C)cc-3sc2c1` [MB, methylene blue], the “extra- and intracellular melanin production” value in series [2] was “did not induce any melanin production”.
